Here are results for one compound from ChEMBL document CHEMBL1140309, “p53 Activation by small molecules: application in oncology” (J Med Chem, 2005).

The target in this test is Tumour suppressor p53/oncoprotein Mdm2 (Homo sapiens, UniProt P04637+Q00987). In words: Inhibitory activity against MDM2 (murine double minute-2 gene) binding to p53. Type of test: protein assay.

As usually defined, the IC50 is the concentration at which inhibition is half-maximal. Read a high IC50 as weaker potency.

Sequence of Tumour suppressor p53/oncoprotein Mdm2 (P04637 whole entry): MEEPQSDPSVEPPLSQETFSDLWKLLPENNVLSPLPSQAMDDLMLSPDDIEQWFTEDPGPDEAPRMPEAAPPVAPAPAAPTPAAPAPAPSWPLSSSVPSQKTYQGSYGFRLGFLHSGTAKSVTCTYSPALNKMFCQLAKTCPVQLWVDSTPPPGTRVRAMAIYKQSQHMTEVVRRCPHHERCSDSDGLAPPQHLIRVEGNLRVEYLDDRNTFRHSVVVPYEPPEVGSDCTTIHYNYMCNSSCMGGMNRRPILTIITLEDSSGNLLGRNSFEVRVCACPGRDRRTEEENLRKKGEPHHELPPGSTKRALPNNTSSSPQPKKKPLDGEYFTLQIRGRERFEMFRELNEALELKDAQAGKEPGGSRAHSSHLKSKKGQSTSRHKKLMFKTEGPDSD
Sequence of Tumour suppressor p53/oncoprotein Mdm2 (Q00987 whole entry): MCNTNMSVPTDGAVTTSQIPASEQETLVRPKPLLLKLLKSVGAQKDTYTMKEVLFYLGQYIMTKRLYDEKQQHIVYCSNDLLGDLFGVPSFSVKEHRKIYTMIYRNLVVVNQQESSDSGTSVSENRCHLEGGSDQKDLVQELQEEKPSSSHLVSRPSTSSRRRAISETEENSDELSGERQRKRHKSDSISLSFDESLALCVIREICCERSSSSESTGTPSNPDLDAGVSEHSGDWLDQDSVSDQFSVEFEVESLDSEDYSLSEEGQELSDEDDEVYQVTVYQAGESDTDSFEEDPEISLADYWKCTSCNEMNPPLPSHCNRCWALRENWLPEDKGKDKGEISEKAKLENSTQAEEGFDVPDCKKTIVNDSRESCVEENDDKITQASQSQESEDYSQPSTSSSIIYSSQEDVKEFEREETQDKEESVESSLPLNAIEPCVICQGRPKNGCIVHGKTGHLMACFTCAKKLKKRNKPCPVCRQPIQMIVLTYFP

For `CC(C)Oc1ccc(C(=O)NS(=O)(=O)c2ccc(NN=C3C(=O)N(c4ccccc4)N(c4ccccc4)C3=O)cc2)cc1`, the IC50 was found to be 30 µM.
